Here are results for one compound from patent US7241937B2, “Methods and materials for improving plant drought tolerance” (Ceres, Inc., priority 2004, dated 2007).

The experiment has as its system NCED3 transgenic seeds. Kind of experiment: GA3 treatment: germination of NCED3 transgenic R2 seeds on growth medium containing GA3. Format: in vivo, rice. As to the method:
GA3 treatment: R2 seeds were surface-sterilized with 20% bleach and germinated on half-strength MS containing 0.4 mL/L Finale and filter-sterilized GA3 (gibberellin) to final concentrations of 0, 10, 100, 250, 500 or 1,000 μM.
ABA and GA3 (gibberellin) can act antagonistically in seed germination. To determine whether GA3 could release the prolonged dormancy evident in the NCED3 transgenic seeds, GA3 was added to the growth medium on which the seeds were placed for germination. […] Thus, addition of exogenous of GA3 can, at least in part, overcome the off-type of prolonged dormancy.

`C=C1C[C@]23C[C@@]1(O)CC[C@H]2[C@@]12C=C[C@H](O)[C@@](C)(C(=O)O1)[C@H]2[C@@H]3C(=O)O` [GA3]: the “seed germination (release of prolonged dormancy)” value (GA3 at a concentration as low as 10 μM in the growth medium) is given as “accelerated germination”. Also, the seedling elongation entry (higher concentrations of GA3) is reported as “more elongated”. Moreover, the seed germination entry (higher concentrations of GA3 (100-1,000 μM) compared with 10 μM) is recorded as “did not significantly improve seed germination”.
